Experimental data: ChEMBL document CHEMBL4138123, “Design, synthesis and biological evaluation of novel pyrazolochalcones as potential modulators of PI3K/Akt/mTOR pathway and inducers of apoptosis in breast cancer cells” (Eur J Med Chem, 2017)
pIC50: −log10 of the molar value.

How the values were obtained:
HL-60(TB) = test: Cytotoxicity against human HL-60(TB) cells assessed as growth inhibition after 48 hrs by sulforhodamine B assay; assay type: functional; conditions: HL-60, 48 h
HOP-62 [1] = test: Cytotoxicity against human HOP62 cells assessed as growth inhibition after 48 hrs by sulforhodamine B assay; assay type: functional; conditions: HOP-62, 48 h
NCI-H23 = test: Cytotoxicity against human NCI-H23 cells assessed as growth inhibition after 48 hrs by sulforhodamine B assay; assay type: functional; conditions: NCI-H23, 48 h
U-251 = test: Cytotoxicity against human U251 cells assessed as growth inhibition after 48 hrs by sulforhodamine B assay; assay type: functional; conditions: U-251, 48 h
BT-549 [2] = test: Cytotoxicity against human BT549 cells assessed as growth inhibition after 48 hrs by sulforhodamine B assay; assay type: functional; conditions: BT-549, 48 h
T47D [3] = test: Cytotoxicity against human T47D cells assessed as growth inhibition after 48 hrs by sulforhodamine B assay; assay type: functional
MDA-MB-468 = test: Cytotoxicity against human MDA-MB-468 cells assessed as growth inhibition after 48 hrs by sulforhodamine B assay; assay type: functional; conditions: MDA-MB-468, 48 h
MCF7 = test: Cytotoxicity against human MCF7 cells assessed as growth inhibition after 48 hrs by MTT assay; assay type: functional, cell-based; conditions: MCF7, 48 h
OVCAR-5 = test: Cytotoxicity against human OVCAR5 cells assessed as cell growth at 0.01 uM after 48 hrs by sulforhodamine B assay relative to control; assay type: functional; conditions: OVCAR-5, 48 h, read-out: Activity
OVCAR-4 [4] = test: Cytotoxicity against human OVCAR4 cells assessed as cell growth at 0.01 uM after 48 hrs by sulforhodamine B assay relative to control; assay type: functional; conditions: OVCAR-4, 48 h, read-out: Activity
HCC 2998 = test: Cytotoxicity against human HCC2998 cells assessed as cell growth at 0.01 uM after 48 hrs by sulforhodamine B assay relative to control; assay type: functional; conditions: HCC 2998, 48 h, read-out: Activity
MOLT-4 [5] = test: Cytotoxicity against human MOLT4 cells assessed as cell growth at 0.01 uM after 48 hrs by sulforhodamine B assay relative to control; assay type: functional; conditions: MOLT-4, 48 h, read-out: Activity
PC-3 [6] = test: Cytotoxicity against human PC3 cells assessed as cell growth at 0.01 uM after 48 hrs by sulforhodamine B assay relative to control; assay type: functional; conditions: PC-3, 48 h, read-out: Activity
NCI-H460 = test: Cytotoxicity against human NCI-H460 cells assessed as cell growth at 0.1 uM after 48 hrs by sulforhodamine B assay relative to control; assay type: functional; conditions: NCI-H460, 48 h, read-out: Activity
SF-268 = test: Cytotoxicity against human SF268 cells assessed as cell growth at 0.1 uM after 48 hrs by sulforhodamine B assay relative to control; assay type: functional; conditions: SF-268, 48 h, read-out: Activity
T47D [7] = test: Cytotoxicity against human T47D cells assessed as cell growth at 0.1 uM after 48 hrs by sulforhodamine B assay relative to control; assay type: functional; conditions: read-out: Activity
HCT-15 [8] = test: Cytotoxicity against human HCT15 cells assessed as cell growth at 1 uM after 48 hrs by sulforhodamine B assay relative to control; assay type: functional; conditions: HCT-15, 48 h, read-out: Activity
IGROV-1 = test: Cytotoxicity against human IGROV1 cells assessed as cell growth at 1 uM after 48 hrs by sulforhodamine B assay relative to control; assay type: functional; conditions: IGROV-1, 48 h, read-out: Activity
BT-549 [9] = test: Cytotoxicity against human BT549 cells assessed as cell growth at 1 uM after 48 hrs by sulforhodamine B assay relative to control; assay type: functional; conditions: BT-549, 48 h, read-out: Activity
NCI-H226 = test: Cytotoxicity against human NCI-H226 cells assessed as cell growth at 10 uM after 48 hrs by sulforhodamine B assay relative to control; assay type: functional; conditions: NCI-H226, 48 h, read-out: Activity
NCI-H522 = test: Cytotoxicity against human NCI-H522 cells assessed as cell growth at 10 uM after 48 hrs by sulforhodamine B assay relative to control; assay type: functional; conditions: NCI-H522, 48 h, read-out: Activity
SF-539 = test: Cytotoxicity against human SF539 cells assessed as cell growth at 10 uM after 48 hrs by sulforhodamine B assay relative to control; assay type: functional; conditions: SF-539, 48 h, read-out: Activity
SK-MEL-5 = test: Cytotoxicity against human SK-MEL-5 cells assessed as cell growth at 10 uM after 48 hrs by sulforhodamine B assay relative to control; assay type: functional; conditions: SK-MEL-5, 48 h, read-out: Activity
Hs-578T = test: Cytotoxicity against human Hs 578T cells assessed as cell growth at 10 uM after 48 hrs by sulforhodamine B assay relative to control; assay type: functional; conditions: read-out: Activity
MOLT-4 [10] = test: Cytotoxicity against human MOLT4 cells assessed as cell growth at 100 uM after 48 hrs by sulforhodamine B assay relative to control; assay type: functional; conditions: MOLT-4, 48 h, read-out: Activity
HOP-62 [11] = test: Cytotoxicity against human HOP62 cells assessed as cell growth at 100 uM after 48 hrs by sulforhodamine B assay relative to control; assay type: functional; conditions: HOP-62, 48 h, read-out: Activity
HCT-116 = test: Cytotoxicity against human HCT116 cells assessed as cell growth at 100 uM after 48 hrs by sulforhodamine B assay relative to control; assay type: functional; conditions: HCT-116, 48 h, read-out: Activity
HCT-15 [12] = test: Cytotoxicity against human HCT15 cells assessed as cell growth at 100 uM after 48 hrs by sulforhodamine B assay relative to control; assay type: functional; conditions: HCT-15, 48 h, read-out: Activity
OVCAR-4 [13] = test: Cytotoxicity against human OVCAR4 cells assessed as cell growth at 100 uM after 48 hrs by sulforhodamine B assay relative to control; assay type: functional; conditions: OVCAR-4, 48 h, read-out: Activity
OVCAR-8 = test: Cytotoxicity against human OVCAR8 cells assessed as cell growth at 100 uM after 48 hrs by sulforhodamine B assay relative to control; assay type: functional; conditions: OVCAR-8, 48 h, read-out: Activity
SK-OV-3 = test: Cytotoxicity against human SKOV3 cells assessed as cell growth at 100 uM after 48 hrs by sulforhodamine B assay relative to control; assay type: functional; conditions: SK-OV-3, 48 h, read-out: Activity
786-0 = test: Cytotoxicity against human 786-0 cells assessed as cell growth at 100 uM after 48 hrs by sulforhodamine B assay relative to control; assay type: functional; conditions: 786-0, 48 h, read-out: Activity
PC-3 [14] = test: Cytotoxicity against human PC3 cells assessed as cell growth at 100 uM after 48 hrs by sulforhodamine B assay relative to control; assay type: functional; conditions: PC-3, 48 h, read-out: Activity
DU-145 = test: Cytotoxicity against human DU145 cells assessed as cell growth at 100 uM after 48 hrs by sulforhodamine B assay relative to control; assay type: functional; conditions: DU-145, 48 h, read-out: Activity
T47D [15] = test: Cytotoxicity against human T47D cells assessed as cell growth at 100 uM after 48 hrs by sulforhodamine B assay relative to control; assay type: functional; conditions: read-out: Activity

For `COc1ccc(-c2cc(/C=C/C(=O)c3ccc(N)cc3)[nH]n2)cc1OC`, the GI50 (HL-60(TB)) was 3.45 µM, the LC50 (HL-60(TB)) was > 100 µM and the TGI (HL-60(TB)) was > 100 µM. For the same compound, the GI50 (HOP-62 [1]) was 2.8 µM, the LC50 (HOP-62 [1]) was 32 µM and the TGI (HOP-62 [1]) was 9.67 µM. For the same compound, the GI50 (NCI-H23) was 4.21 µM, the TGI (NCI-H23) was 19.3 µM and the CC50 (NCI-H23; read-out: LC50 (the source's name)) was 95.6 µM. It also gave a GI50 (U-251) of 1.74 µM, an LC50 (U-251) of 7.69 µM and a TGI (U-251) of 3.66 µM. For the same compound, the GI50 (BT-549 [2]) was 1.5 µM, the LC50 (concentration killing 50% of cells) (BT-549 [2]) was 5.77 µM and the TGI (BT-549 [2]) was 2.94 µM. For the same compound, the GI50 (T47D [3]) was 4.25 µM, the LC50 (T47D [3]) was > 100 µM and the TGI (T47D [3]) was 26 µM. The GI50 (MDA-MB-468) was 1.55 µM, the LC50 (MDA-MB-468) was 7.8 µM and the TGI (MDA-MB-468) was 3.48 µM. For the same compound, the pIC50 (MCF7) was 5.72, the growth at 0.01 µM (OVCAR-5) was 91% and the growth at 0.01 µM (OVCAR-4 [4]) was 85%. It also gave a growth at 0.01 µM (HCC 2998) of 102%, a growth at 0.01 µM (MOLT-4 [5]) of 108% and a growth at 0.01 µM (PC-3 [6]) of 95%. For the same compound, the growth at 0.1 µM (NCI-H460) was 100%, the growth at 0.1 µM (SF-268) was 101% and the growth at 0.1 µM (T47D [7]) was 90%. It also gave a growth at 1 µM (HCT-15 [8]) of 73%, a growth at 1 µM (IGROV-1) of 100% and a growth at 1 µM (BT-549 [9]) of 80%. The growth at 10 µM (NCI-H226) was -13%, the growth at 10 µM (NCI-H522) was -84% and the growth at 10 µM (SF-539) was -73%. It also gave a growth at 10 µM (SK-MEL-5) of 6%, a growth at 10 µM (Hs-578T) of 40% and a growth at 100 µM (MOLT-4 [10]) of -22%. The growth at 100 µM (HOP-62 [11]) was -98%, the growth at 100 µM (HCT-116) was -89% and the growth at 100 µM (HCT-15 [12]) was -71%. The growth at 100 µM (OVCAR-4 [13]) was -98%, the growth at 100 µM (OVCAR-8) was -86% and the growth at 100 µM (SK-OV-3) was -99%. For the same compound, the growth at 100 µM (786-0) was -97%, the growth at 100 µM (PC-3 [14]) was -48% and the growth at 100 µM (DU-145) was -100%. The growth at 100 µM (T47D [15]) was -40%.
